From US7368578B2, “Five-membered heterocyclic compounds” (Takeda Pharmaceutical Company Limited, priority 2002, dated 2008)

Columns and labels:
human PPARγ1 = target: T1, human PPARγ1 (Homo sapiens, UniProt P37231); test: Measurement of human PPARγ1 binding activity ([3H]-compound A displacement); settings: cell extract with 1.5 μg/ml full length hPPARγ1, 20 nM [3H]-compound A, 4° C., 16 hrs
T1 construct: made in house; host or cells: COS-1 cells transiently transfected with pMCMVneo-hPPARγ; crude supernatant of the lysate, not purified
T1 sequence (P37231 1-477 isoform P37231-2): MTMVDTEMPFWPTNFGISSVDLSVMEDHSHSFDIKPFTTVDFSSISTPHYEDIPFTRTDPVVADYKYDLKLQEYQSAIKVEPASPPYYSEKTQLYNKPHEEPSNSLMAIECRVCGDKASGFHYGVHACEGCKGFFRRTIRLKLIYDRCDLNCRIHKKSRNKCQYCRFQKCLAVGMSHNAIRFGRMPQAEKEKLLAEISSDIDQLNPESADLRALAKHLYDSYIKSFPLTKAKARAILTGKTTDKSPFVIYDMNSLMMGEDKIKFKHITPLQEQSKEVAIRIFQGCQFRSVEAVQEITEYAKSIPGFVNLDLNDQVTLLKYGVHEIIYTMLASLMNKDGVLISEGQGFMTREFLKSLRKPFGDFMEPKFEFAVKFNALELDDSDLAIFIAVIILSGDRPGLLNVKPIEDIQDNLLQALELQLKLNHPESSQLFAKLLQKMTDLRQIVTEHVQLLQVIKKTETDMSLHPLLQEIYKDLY
Description: A cell extract containing 1.5 μg/ml of full length hPPARγ1 prepared in Reference Example 7a, 20 nM [^3H]-compound A (16 Ci/mmol)(Amersham Pharmacia Biotech) and a test compound were reacted in TEGM buffer at 4° C. for 16 hrs. To the reaction mixture was added activated carbon (Sigma) coated with 140 μl of dextran (Amersham Pharmacia Biotech) and gelatin (Sigma), and the mixture was left standing at 4° C. for 10 min and centrifuged at 910×g for 10 min. After centrifugation, the radioactivity of 30 μl of supernatant was measured with Topcount (Packard). In addition, a test similar to the above was conducted for the non-use of the aforementioned test compound and for the use of 100 μM of compound A instead of the aforementioned test compound, and the radioactivity was determined.
The human PPARγ1 binding activity of the test compound was evaluated using percentages wherein the measured value of the radioactivity when 20 nM [^3H]-compound A alone was added was 100%, and the measured value of the radioactivity when 20 nM [^3H]-compound A and 100 μM of compound A were simultaneously added was 0%. Moreover, the IC50 value of the test compound was calculated based on the analysis of the compound concentration and the percentage using PRISM3.0 (Graph Pad, Inc.).
COS-1 cells were seeded in a 150 cm^2 tissue culture flask (Corning Inc.) at 5×10^6 cells, and cultured under 37° C. 5% CO2 conditions for 24 hrs. Transfection was performed using lipofectamine (GIBCO BRL). To be specific, 125 μl of lipofectamine, 100 μl of PLUS Reagent and 15 μg of hPPARγ expression plasmid (plasmid pMCMVneo-hPPARγ obtained in Reference Example 6a) were mixed with opti-MEM (GIBCO BRL) to give a transfection mixture. The transfection mixture (25 ml) was added to COS-1 cells and the cells were cultured under 37° C. 5% CO2 conditions for 3 hrs. Then 25 ml of DMEM medium (Nikken Biomedical Laboratory) containing 10% FCS treated with activated carbon (Sigma) was added to the cells and the cells were cultured under 37° C. 5% CO2 conditions. After 24 hrs., the medium was substituted with 50 ml of DMEM medium (Nikken Biomedical Laboratory) containing 5% FCS treated with activated carbon, and the cells were cultured under 37° C., 5% CO2 conditions. After 48 hrs, the transfected cells were recovered and washed with TEG buffer (10 mM Tris-HCl (pH 7.2), 50 mM EDTA, 10% glycerol). The cells were suspended in 1 ml TEGM buffer (10 mM Tris-HCl (pH 7.2), 1 mM EDTA, 10% glycerol, 7 μl/100 ml β-mercaptoethanol, 10 mM Na molybdate, 1 mM dithiothreitol, 2 tablets/100 ml Protease inhibitor Cocktail tablets (Boehringer Mannheim)) and, for cell lysis, frozen with liquid nitrogen and thawed on ice. To remove the debris of the cells, the extract was centrifuged at 228,000×g, 4° C. for 20 min. and the supernatant was preserved at −80° C. until use.

In the case of `Cc1oc(-c2ccco2)nc1COc1ccc(COc2nn(Cc3ccccc3)cc2C=O)cn1` [Example 42, 1-benzyl-3-[(6-{[2-(2-furyl)-5-methyl-1,3-oxazol-4-yl]methoxy}-3-pyridinyl)methoxy]-1H-pyrazole-4-carbaldehyde], the melting point is reported as 104 to 105 °C and the IC50 (human PPARγ1) is reported as 1100 nM.
`CCOC(=O)c1cn(-c2ccccc2)nc1OCc1ccc(OCc2nc(-c3ccco3)oc2C)c(OC)c1` [Example 72, ethyl 3-[(4-{[2-(2-furyl)-5-methyl-1,3-oxazol-4-yl]methoxy}-3-methoxybenzyl)oxy]-1-phenyl-1H-pyrazole-4-carboxylate] gave a melting point of 150 to 151 °C and an IC50 (human PPARγ1) of 770 nM.
Work on `COc1cc(COc2nn(-c3ccccc3)cc2CO)ccc1OCc1nc(-c2ccco2)oc1C` [Example 75, {3-[(4-{[2-(2-furyl)-5-methyl-1,3-oxazol-4-yl]methoxy}-3-methoxybenzyl)oxy]-1-phenyl-1H-pyrazol-4-yl}methanol] yielded an IC50 (human PPARγ1) of 660 nM.
Compound `COc1cc(COc2nn(-c3ccccc3)cc2C=O)ccc1OCc1nc(-c2ccco2)oc1C` [Example 76, 3-[(4-{[2-(2-furyl)-5-methyl-1,3-oxazol-4-yl]methoxy}-3-methoxybenzyl)oxy]-1-phenyl-1H-pyrazole-4-carbaldehyde] has a melting point of 137 to 138 °C and an IC50 (human PPARγ1) of 190 nM.
For `COc1cc(COc2nn(-c3ccccc3)cc2C#N)ccc1OCc1nc(-c2ccco2)oc1C` [Example 77, 3-[(4-{[2-(2-furyl)-5-methyl-1,3-oxazol-4-yl]methoxy)-3-methoxybenzyl)oxy]-1-phenyl-1H-pyrazole-4-carbonitrile], the melting point was 167 to 168 °C and the IC50 (human PPARγ1) was 79 nM.
Compound `CCOP(=O)(CCc1cn(-c2ccccc2)nc1OCc1ccc(OCc2nc(-c3ccco3)oc2C)c(OC)c1)OCC` [Example 100, diethyl 2-{3-[(4-{[2-(2-furyl)-5-methyl-1,3-oxazol-4-yl]methoxy}-3-methoxybenzyl)oxy]-1-phenyl-1H-pyrazol-4-yl}ethylphosphonate] has an IC50 (human PPARγ1) of 210 nM.
`CCOP(=O)(/C=C/c1cn(-c2ccccc2)nc1OCc1ccc(OCc2nc(-c3ccco3)oc2C)c(OC)c1)OCC` [Example 116 (E form), diethyl (E)-2-{3-[(4-{[2-(2-furyl)-5-methyl-1,3-oxazol-4-yl]methoxy}-3-methoxybenzyl)oxy]-1-phenyl-1H-pyrazol-4-yl}ethenylphosphonate] showed an IC50 (human PPARγ1) of 39 nM.
`COc1cc(COc2nn(-c3ccccc3)cc2/C=C/P(=O)(OC(C)C)OC(C)C)ccc1OCc1nc(-c2ccco2)oc1C` [Example 145, diisopropyl (E)-2-{3-[(4-{[2-(2-furyl)-5-methyl-1,3-oxazol-4-yl]methoxy}-3-methoxybenzyl)oxy]-1-phenyl-1H-pyrazol-4-yl}ethenylphosphonate] showed a melting point of 152 to 153 °C and an IC50 (human PPARγ1) of 80 nM.
In the case of `CCOP(=O)(/C=C/c1cn(-c2ccccc2)nc1OCc1ccc(OCc2nc(-c3ccccc3)oc2C)c(OC)c1)OCC` [Example 146, diethyl (E)-2-[3-({3-methoxy-4-[(5-methyl-2-phenyl-1,3-oxazol-4-yl)methoxy]benzyl}oxy)-1-phenyl-1H-pyrazol-4-yl]ethenylphosphonate], the melting point is reported as 92 to 93 °C and the IC50 (human PPARγ1) is reported as 68 nM.
With `COc1cc(COc2nn(-c3ccccc3)cc2/C=C/c2csc(C)n2)ccc1OCc1nc(-c2ccco2)oc1C` [Example 150 (E form), 2-(2-furyl)-4-({2-methoxy-4-[({4-[(E)-2-(2-methyl-1,3-thiazol-4-yl)ethenyl]-1-phenyl-1H-pyrazol-3-yl}oxy)methyl]phenoxy}methyl)-5-methyl-1,3-oxazole] the melting point was 111 to 112 °C and the IC50 (human PPARγ1) was 50 nM.
Compound `CCC(=O)/C=C/c1cn(-c2ccccc2)nc1OCc1ccc(OCc2nc(-c3ccco3)oc2C)c(OC)c1` [Example 156, (1E)-1-{3-[(4-{[2-(2-furyl)-5-methyl-1,3-oxazol-4-yl]methoxy}-3-methoxybenzyl)oxy]-1-phenyl-1H-pyrazol-4-yl}-1-penten-3-one] has a melting point of 167 to 168 °C and an IC50 (human PPARγ1) of 7300 nM.
For `CCOP(=O)(/C=C/c1cn(-c2ccccc2)nc1OCc1ccc(OCc2nc(-c3ccc(CC(=O)O)cc3)oc2C)c(OC)c1)OCC` [Example 241, {4-[4-({4-[({4-[(E)-2-(diethoxyphosphoryl)ethenyl]-1-phenyl-1H-pyrazol-3-yl}oxy)methyl]-2-methoxyphenoxy}methyl)-5-methyl-1,3-oxazol-2-yl]phenyl}acetic acid], the IC50 (human PPARγ1) was 69 nM.
In the case of `CCOP(=O)(/C=C/c1cn(-c2ccccc2)nc1OCc1ccc(OCc2nc(-c3cccc(CC(=O)O)c3)oc2C)c(OC)c1)OCC` [Example 249, {3-[4-({4-[({4-[(E)-2-(diethoxyphosphoryl)ethenyl]-1-phenyl-1H-pyrazol-3-yl}oxy)methyl]-2-methoxyphenoxy}methyl)-5-methyl-1,3-oxazol-2-yl]phenyl}acetic acid], the IC50 (human PPARγ1) is reported as 33 nM.
Compound `CCOP(=O)(/C=C/c1cn(-c2ccccc2)nc1OCc1ccc(OCc2nc(-c3cccc(-c4nnn[nH]4)c3)oc2C)c(OC)c1)OCC` [Example 336, {(E)-2-(3-{[3-methoxy-4-({5-methyl-2-[3-(1H-tetrazol-5-yl)phenyl]-1,3-oxazol-4-yl}methoxy)benzyl]oxy}-1-phenyl-1H-pyrazol-4-yl)ethenyl}phosphonate diethyl] has an IC50 (human PPARγ1) of 7.7 nM.
Compound `CCc1nc(/C=C/c2cn(-c3ccccc3)nc2OCc2ccc(OCc3nc(-c4ccc(CC(=O)O)cc4)oc3C)c(OC)c2)cs1` [Example 337, {4-[4-({4-[({4-[(E)-2-(2-ethyl-1,3-thiazol-4-yl)ethenyl]-1-phenyl-1H-pyrazol-3-yl}oxy)methyl]-2-methoxyphenoxy}methyl)-5-methyl-1,3-oxazol-2-yl]phenyl}acetic acid] has an IC50 (human PPARγ1) of 66 nM.
For `COc1cc(COc2nn(-c3ccccc3)cc2/C=C/c2csc(C)n2)ccc1OCc1nc(-c2ccc(CC(=O)O)cc2)oc1C` [Example 357, {4-[4-({2-methoxy-4-[({4-[(E)-2-(2-methyl-1,3-thiazol-4-yl)ethenyl]-1-phenyl-1H-pyrazol-3-yl}oxy)methyl]phenoxy}methyl)-5-methyl-1,3-oxazol-2-yl]phenyl}acetic acid], the IC50 (human PPARγ1) was 150 nM.
In the case of `COc1cc(COc2nn(-c3ccccc3)cc2/C=C/c2csc(C(C)C)n2)ccc1OCc1nc(-c2ccc(CC(=O)O)cc2)oc1C` [Example 361, {4-[4-({4-[({4-[(E)-2-(2-isopropyl-1,3-thiazol-4-yl)ethenyl]-1-phenyl-1H-pyrazol-3-yl}oxy)methyl]-2-methoxyphenoxy}methyl)-5-methyl-1,3-oxazol-2-yl]phenyl}acetic acid], the IC50 (human PPARγ1) is reported as 38 nM.
Work on `CCc1nc(/C=C/c2cn(-c3ccccc3)nc2OCc2ccc(OCc3nc(-c4ccc(CC(=O)O)cc4)oc3C)c(OC)c2)co1` [Example 369, {4-[4-({4-[({4-[(E)-2-(2-ethyl-1,3-oxazol-4-yl)ethenyl]-1-phenyl-1H-pyrazol-3-yl}oxy)methyl]-2-methoxyphenoxy}methyl)-5-methyl-1,3-oxazol-2-yl]phenyl}acetic acid] yielded an IC50 (human PPARγ1) of 83 nM.
`COc1cc(COc2nn(-c3ccccc3)cc2/C=C/c2coc(C(C)C)n2)ccc1OCc1nc(-c2ccc(CC(=O)O)cc2)oc1C` [Example 370, {4-[4-({4-[({4-[(E)-2-(2-isopropyl-1,3-oxazol-4-yl)ethenyl]-1-phenyl-1H-pyrazol-3-yl}oxy)methyl]-2-methoxyphenoxy}methyl)-5-methyl-1,3-oxazol-2-yl]phenyl}acetic acid] gave an IC50 (human PPARγ1) of 32 nM.
